# Key:
# Format in all cases: functional
# [1] = test system: Enterococcus faecalis; assay: In vitro antibacterial activity against vancomycin resistant Enterococcus faecalis UC 9217 (VREA)
# [2] = test system: Haemophilus influenzae; assay: In vitro antibacterial activity against ampicillin resistant Haemophilus influenzae 30063 (B-lactamase +)
# [3] = test system: Moraxella catarrhalis; assay: In vitro antibacterial activity against Moraxella catarrhalis 30607
# [4] = test system: Staphylococcus aureus; assay: In vitro antibacterial activity against methicillin resistant Staphylococcus aureus UC 12673 (MRSA)
# [5] = test system: Staphylococcus epidermidis; assay: In vitro antibacterial activity against methicillin resistant Staphylococcus epidermidis UC 12084
# [6] = test system: Streptococcus pneumoniae; assay: In vitro antibacterial activity against penicillin sensitive Streptococcus pneumoniae UC 9912
# [7] = test system: Staphylococcus aureus; assay: In vitro antibacterial activity against methicillin susceptible Staphylococcus aureus UC 9213 (MSSA)
# [8] = test system: Mus musculus; assay: In vivo efficacy to protect the Staphylococcus aureus infected mouse and the activity was reported using Linezolid as a control with ED50 = 5
# [9] = test system: Mus musculus; assay: In vivo efficacy to protect the Staphylococcus aureus infected mouse and the activity was reported using Linezolid as a control with ED50 = 5.6
# [10] = test system: Mus musculus; assay: In vivo efficacy to protect the Staphylococcus aureus infected mouse and the activity was reported using Linezolid as a control with ED50 = 2.2
# [11] = test system: Mus musculus; assay: In vivo efficacy to protect the Staphylococcus aureus infected mouse and the activity was reported using Linezolid as a control with ED50 = 3.8
# [12] = test system: Mus musculus; assay: In vivo efficacy to protect the Staphylococcus aureus infected mouse and the activity was reported using Linezolid as a control with ED50 = 3.1
# [13] = test system: Mus musculus; assay: In vivo efficacy to protect the Staphylococcus aureus infected mouse and the activity was reported using Linezolid as a control with ED50 = 3.7
# [14] = test system: Mus musculus; assay: In vivo efficacy to protect the Staphylococcus aureus infected mouse and the activity was reported using Linezolid as a control with ED50 =4
# [15] = test system: Mus musculus; assay: In vivo efficacy to protect the Staphylococcus aureus infected mouse and the activity was reported using Linezolid as a control with ED50 = 4.3
Structure (SMILES),MIC [1],MIC [2],MIC [3],MIC [4],MIC [5],MIC [6],MIC [7],ED50 [8],ED50 [9],ED50 [10],ED50 [11],ED50 [12],ED50 [13],ED50 [14],ED50 [15]
CC(=O)NC[C@H]1CN(c2ccc(-c3nnc(CS(C)(=O)=O)s3)c(F)c2)C(=O)O1,2 µg/mL,4 µg/mL,4 µg/mL,4 µg/mL,1 µg/mL,< 0.5 µg/mL,4 µg/mL,,,,,,,,
C/C(S)=N/C[C@H]1CN(c2ccc(-c3nnc(CS(C)(=O)=O)s3)c(F)c2)C(=O)O1,0.25 µg/mL,2 µg/mL,0.5 µg/mL,0.5 µg/mL,0.25 µg/mL,0.06 µg/mL,0.25 µg/mL,> 20 mg/kg,,,,,,,
C/C(S)=N/C[C@H]1CN(c2ccc(-c3nncs3)c(F)c2)C(=O)O1,0.125 µg/mL,1 µg/mL,0.25 µg/mL,< 0.125 µg/mL,< 0.125 µg/mL,< 0.125 µg/mL,0.25 µg/mL,,> 20 mg/kg,,,,,,
COCc1nnc(-c2ccc(N3C[C@H](CNC(C)=O)OC3=O)cc2F)s1,1 µg/mL,8 µg/mL,4 µg/mL,1 µg/mL,4 µg/mL,0.25 µg/mL,2 µg/mL,,,5.8 mg/kg,,,,,
CCOC(=O)c1nnc(-c2ccc(N3C[C@H](CNC(C)=O)OC3=O)cc2F)s1,8 µg/mL,> 16 µg/mL,16 µg/mL,8 µg/mL,2 µg/mL,< 0.125 µg/mL,8 µg/mL,,,,,,,,
CC(=O)NC[C@H]1CN(c2ccc(-c3nnc(O)s3)c(F)c2)C(=O)O1,1 µg/mL,4 µg/mL,4 µg/mL,1 µg/mL,0.5 µg/mL,0.125 µg/mL,1 µg/mL,,,,13 mg/kg,,,,
CC(=O)NC[C@H]1CN(c2ccc(-c3nnc(CC/C(C)=N/O)s3)c(F)c2)C(=O)O1,1 µg/mL,4 µg/mL,4 µg/mL,2 µg/mL,0.5 µg/mL,< 0.125 µg/mL,2 µg/mL,> 20 mg/kg,,,,,,,
CC(=O)NC[C@H]1CN(c2ccc(-c3nnc(CO)s3)c(F)c2)C(=O)O1,1 µg/mL,4 µg/mL,2 µg/mL,1 µg/mL,0.25 µg/mL,< 0.125 µg/mL,1 µg/mL,,,,,8.7 mg/kg,,,
CC(=O)NC[C@H]1CN(c2ccc(-c3nnc(COC(C)=O)s3)c(F)c2)C(=O)O1,1 µg/mL,4 µg/mL,2 µg/mL,1 µg/mL,0.25 µg/mL,< 0.125 µg/mL,1 µg/mL,,,,,,18.5 mg/kg,,
CC(=O)NC[C@H]1CN(c2ccc(-c3nnc(CF)s3)c(F)c2)C(=O)O1,1 µg/mL,4 µg/mL,2 µg/mL,1 µg/mL,0.25 µg/mL,0.25 µg/mL,1 µg/mL,,,,,,,8.6 mg/kg,
CSCc1nnc(-c2ccc(N3C[C@H](CNC(C)=O)OC3=O)cc2F)s1,1 µg/mL,> 16 µg/mL,4 µg/mL,1 µg/mL,0.25 µg/mL,0.25 µg/mL,1 µg/mL,,,,,,,,
CNCc1nnc(-c2ccc(N3C[C@H](C/N=C(/C)S)OC3=O)cc2F)s1,< 0.5 µg/mL,< 0.5 µg/mL,< 0.5 µg/mL,,< 0.5 µg/mL,< 0.5 µg/mL,< 0.5 µg/mL,,,,,,,,> 20 mg/kg
